Source: US10780083B1, “Charged ion channel blockers and methods for use” (Nocion Therapeutics, Inc., priority 2019, dated 2020)

assay: PAMPA membrane permeability assay; assay type: in vitro ADME; conditions: pH 7.4 buffer, incubated for 4 hours, passive diffusion
Description: The PAMPA assay (pION, Inc., Woburn Mass.) was used to determine the ability of compounds of the invention to cross an artificial lipid membrane by passive diffusion. Test compounds were dissolved in DMSO (10 mM) and diluted 200-fold in buffer (pION Inc., pH 7.4) to provide 50 uM stock solutions. Buffer (150 μL) was added to a UV blank plate and stock solutions (150 μL) were transferred to a UV reference plate. The blank and reference spectrum were read using a spectrophotometer. Stock solutions (200 μL) were added to the donor plate of the PAMPA sandwich plate and an accept plate painted with GIT lipid (pION Inc, 5 μL) was placed on top. Buffer (200 μL) was added to the acceptor plate and the PAMPA sandwich plate was incubated for 4 hours. Aliquots (150 μL) from the acceptor plate were added to a UV plate and read as acceptor spectrum. Aliquots (150 μL) of the donor solutions were added to a UV analysis plate and read as donor spectrum. The permeability coefficient of test compounds was calculated using PAMPA Explorer™ software (version 3.5.0.4) based on the AUC of the reference plate, the donor plate, and the acceptor plate.

Row | SMILES | Papp at 4 h, 50 uM [×10⁻⁶ cm/s]
1 | Cc1cccc(C)c1NC(=O)C[N+]1(Cc2ccccc2)CCCCCCC1.[Br-] [6A′, 1-benzyl-1-(2-((2,6-dimethylphenyl)amino)-2-oxoethyl) azocan-1-ium bromide] | < 1
2 | CCC(C(=O)Nc1c(C)cccc1C)[N+]1(Cc2ccccc2)CCCCC1.[Br-] (centres unmarked) [3A′, 1-benzyl-1-(1-((2,6-dimethylphenyl)amino)-1-oxobutan-2-yl)piperidin-1-ium bromide] | < 1
3 | Cc1cccc(C)c1NC(=O)C[N+]1(Cc2ccccc2)CCCCCC1.[Br-] [4A′, 1-benzyl-1-(2-((2,6-dimethylphenyl)amino)-2-oxoethyl) azepan-1-ium bromide] | < 1

Results, then the compound that gave them:

Row | Papp at 4 h, 50 uM [×10⁻⁶ cm/s] | SMILES
4 | < 1 | Cc1cccc(C)c1NC(=O)C[N+]1(Cc2ccccc2)CCCC1.[Br-] [2A′, 1-benzyl-1-(2-((2,6-dimethylphenyl)amino)-2-oxoethyl) pyrrolidin-1-ium bromide]
5 | < 1 | CCC(C(=O)Nc1c(C)cccc1C)[N+]1(Cc2ccccc2)CCCCCC1.[Br-] (centres unmarked) [5A′, 1-benzyl-1-(1-((2,6-dimethylphenyl)amino)-1-oxobutan-2-yl) azepan-1-ium bromide]
